Columns and labels:
[1] = test system: leucine transporter (LeuT); test: Structural stability of LeuT, [3H]-Leu binding by scintillation proximity assay (SPA); assay type: biochemical, Aquifex aeolicus; conditions: CMC+0.04% or CMC+0.2% by weight; room temperature; 12 days incubation
Method: An experiment for measuring structural stability of a LeuT protein by BTMs in an aqueous solution was performed. Each amphiphilic compound was used at a concentration of (a) CMC+0.04% by weight or (b) CMC+0.2% by weight, and the ligand-binding characteristics of LeuT were determined through a scintillation proximity assay (SPA) using [^3H]-Leu. The measurement was performed at room temperature at regular intervals during an incubation period of 12 days.
Specifically, thermophilic bacteria (Aquifex aeolicus)-derived wild-type leucine transporter (LeuT) were purified using the method as described above (G. Deckert, et al., Nature 1998, 392, 353-358). LeuT was expressed in E. coli C41 (DE3) transformed with pET16b encoding a C-terminal 8×His-tagged transporter (an expression plasmid was provided from Dr. E. Gouaux, Vollum Institute, Portland, Oreg., USA). […] Protein samples were stored at room temperature for 12 days, and centrifuged for a given time, and the characteristics of the proteins were determined by measuring a [^3H]-leucine binding ability using SPA. […] The entire [^3H]-leucine binding affinity to each sample was measured using a MicroBeta liquid scintillation counter (PerkinElmer).

[2] = test system: uric acid-xanthine/H+ symporter (UapA), UapAG411VΔ1-11 GFP fusion; test: Thermal stability of UapA solubilized by detergent, fluorescence size exclusion chromatography (FSEC); parameters: species or system Aspergillus nidulans; conditions: detergent 1.0% by weight; 40° C. for 10 minutes
Method: A UapA protein is a uric acid-xanthine/H^+ symporter in Aspergillus nidulans. An experiment for measuring structural stability of a uric acid-xanthine/H^+ symporter (UapA) by BTMs in an aqueous solution was performed. The structural stability of UapA was measured using fluorescence size exclusion chromatography (FSEC).
Specifically, UapAG411VΔ1-11 (hereinafter referred to as ‘UapA’) was expressed as a GFP fusion protein in a Saccharomyces cerevisiae FGY217 strain, and divided into a sample buffer (20 mM Tris (pH 7.5), 150 mM NaCl, 0.03% DDM, and 0.6 mM xanthine). This procedure was performed according to the method disclosed in the article by J. Leung et al. (Mol. Membr. Biol. 2013, 30, 32-42). Membranes containing UapA were re-suspended in PBS (10 mM imidazole pH 8.0, 150 mM NaCl, and 10% glycerol), and a concentration of proteins was measured. […] 100 μL aliquots were removed from the respective tubes, and fluorescence reading on each sample was performed before and after the aliquots were ultracentrifuged at 150,000 g for 10 minutes to remove insoluble matter. Water-soluble fractions remaining under each condition were subjected to fluorescence SEC (FSEC) using a Superose 6 column (GE Healthcare) equilibrated with a buffer containing a proper preparation (DDM or BTM).

CCCCCCCCCCCCO[C@@H]1O[C@H](CO)[C@@H](O[C@H]2O[C@H](CO)[C@@H](O)[C@H](O)[C@H]2O)[C@H](O)[C@H]1O [DDM, n-dodecyl-β-D-maltopyranoside, reference compound]
maintenance of ligand-binding characteristics of LeuT [1]: continuous structural collapse of the solubilized transporter
UapA monodisperse peak in FSEC (extraction and structural stability) [2]: monodisperse peak with a relatively high strength
